{"source": "ChEMBL document CHEMBL5385867", "about": "“2-Phenoxy-3, 4'-bipyridine derivatives inhibit AURKB-dependent mitotic processes by disrupting its localization” (Eur J Med Chem, 2023)", "key": {"[1]": {"target": "Aurora kinase B (Homo sapiens) (UniProt Q96GD4)", "sequence (Q96GD4 whole entry)": "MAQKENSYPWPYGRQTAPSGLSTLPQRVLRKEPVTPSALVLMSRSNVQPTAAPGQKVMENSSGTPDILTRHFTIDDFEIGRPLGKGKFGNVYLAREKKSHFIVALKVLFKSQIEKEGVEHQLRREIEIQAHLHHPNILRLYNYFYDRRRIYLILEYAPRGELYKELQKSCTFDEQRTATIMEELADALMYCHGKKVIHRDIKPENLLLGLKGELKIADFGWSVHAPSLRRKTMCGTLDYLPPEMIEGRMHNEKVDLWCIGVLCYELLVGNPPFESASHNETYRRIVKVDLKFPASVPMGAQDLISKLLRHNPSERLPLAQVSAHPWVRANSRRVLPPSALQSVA", "experiment": "Disruption of AURKB localization in human RPE-MYC transfected with GFP-H2B assessed as minimal effective concentration that induces mitotic arrest, polyploidy, cell death and cell number reduction by MIPS assay", "type": "cell-based"}, "[2]": {"target": "Aurora kinase B (Homo sapiens) (UniProt Q96GD4)", "experiment": "Inhibition of Aurora kinase B in human RPE-MYC cells transfected with BCL2 assessed as inhibition of histone H3 phosphorylation at Ser10 residue at 200 nM measured after 6 hrs by immunofluorescence staining based analysis", "type": "cell-based"}, "[3]": {"target": "Aurora kinase B (Homo sapiens) (UniProt Q96GD4)", "experiment": "Disruption of AURKB localization in human RPE-MYC cells transfected with BCL2 assessed as localization of PLK1 at mitotic centrosomes at 40 nM measured after 6 hrs by immunofluorescence staining based analysis", "type": "cell-based"}, "[4]": {"target": "Aurora kinase B (Homo sapiens) (UniProt Q96GD4)", "experiment": "Inhibition of Aurora kinase B (unknown origin)"}, "[5]": {"system": "Phosphatidylinositol 4,5-bisphosphate 3-kinase catalytic subunit alpha isoform (Homo sapiens), P42336 [E545K]", "sequence (P42336 whole entry E545K, canonical isoform)": "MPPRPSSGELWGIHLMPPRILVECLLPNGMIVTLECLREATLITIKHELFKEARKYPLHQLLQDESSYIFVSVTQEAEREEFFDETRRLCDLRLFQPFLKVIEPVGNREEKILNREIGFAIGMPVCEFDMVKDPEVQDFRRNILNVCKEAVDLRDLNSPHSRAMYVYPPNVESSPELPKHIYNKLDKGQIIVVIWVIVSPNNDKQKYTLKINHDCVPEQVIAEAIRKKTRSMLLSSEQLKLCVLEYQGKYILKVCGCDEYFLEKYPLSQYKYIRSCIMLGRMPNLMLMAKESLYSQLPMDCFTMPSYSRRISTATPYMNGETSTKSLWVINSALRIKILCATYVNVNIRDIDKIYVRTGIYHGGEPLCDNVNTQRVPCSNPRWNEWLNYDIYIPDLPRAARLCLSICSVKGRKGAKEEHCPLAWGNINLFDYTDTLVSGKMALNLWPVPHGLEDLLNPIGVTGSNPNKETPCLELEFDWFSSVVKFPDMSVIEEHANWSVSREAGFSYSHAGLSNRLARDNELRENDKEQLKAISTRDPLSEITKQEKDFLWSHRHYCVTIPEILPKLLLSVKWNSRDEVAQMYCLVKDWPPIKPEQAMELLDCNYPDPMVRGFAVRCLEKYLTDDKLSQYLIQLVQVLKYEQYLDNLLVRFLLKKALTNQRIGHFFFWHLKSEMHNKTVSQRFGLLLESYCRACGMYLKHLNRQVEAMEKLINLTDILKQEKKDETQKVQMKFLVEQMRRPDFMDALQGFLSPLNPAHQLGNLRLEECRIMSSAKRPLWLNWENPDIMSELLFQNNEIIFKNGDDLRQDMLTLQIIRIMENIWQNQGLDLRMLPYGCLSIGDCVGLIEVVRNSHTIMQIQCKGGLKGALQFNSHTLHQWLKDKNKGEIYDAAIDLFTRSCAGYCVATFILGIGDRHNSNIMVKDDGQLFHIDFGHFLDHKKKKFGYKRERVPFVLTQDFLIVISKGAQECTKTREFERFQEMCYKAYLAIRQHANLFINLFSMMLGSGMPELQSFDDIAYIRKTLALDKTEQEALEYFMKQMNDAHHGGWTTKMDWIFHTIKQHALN", "experiment": "Inhibition of PI3KCA E545K mutant (unknown origin)"}, "[6]": {"target": "Aurora kinase B (Homo sapiens) (UniProt Q96GD4)", "experiment": "Inhibition of Aurora kinase B in human RPE-MYC cells transfected with BCL2 assessed as inhibition of histone H3 phosphorylation at Ser10 residue at 40 nM measured after 6 hrs by immunofluorescence staining based analysis", "type": "cell-based"}, "[7]": {"target": "Aurora kinase B (Homo sapiens) (UniProt Q96GD4)", "experiment": "Disruption of AURKB localization in human RPE-MYC cells transfected with BCL2 assessed as localization of PLK1 at spindle poles at 40 nM measured after 6 hrs by immunofluorescence staining based analysis", "type": "cell-based"}, "[8]": {"target": "Aurora kinase B (Homo sapiens) (UniProt Q96GD4)", "experiment": "Disruption of AURKB localization in human RPE-MYC cells transfected with BCL2 assessed as loss of localization of MKLP1 at the spindle-midzone at 40 nM measured after 6 hrs by immunofluorescence staining based analysis", "type": "cell-based"}, "[9]": {"target": "Aurora kinase B (Homo sapiens) (UniProt Q96GD4)", "experiment": "Inhibition of Aurora kinase B in human RPE-MYC cells transfected with BCL2 assessed as inhibition of histone H3 phosphorylation at Ser10 residue at MEC for polyploidy measured after 6 hrs by immunofluorescence staining based analysis", "type": "cell-based"}, "Mus musculus [10]": {"system": "Mus musculus", "experiment": "Induction of mitotic arrest in BALB/c mouse xenografted with human NCI-H23 cells assessed as increase in mitotic index in tumor at 50 mg/kg, po bid for 7 days by immunohistochemical staining based analysis", "type": "functional, organism-based", "conditions": "time 7.0 day"}, "[11]": {"target": "T1, Aurora kinase A (Homo sapiens) (UniProt O14965)", "T1 sequence (whole entry)": "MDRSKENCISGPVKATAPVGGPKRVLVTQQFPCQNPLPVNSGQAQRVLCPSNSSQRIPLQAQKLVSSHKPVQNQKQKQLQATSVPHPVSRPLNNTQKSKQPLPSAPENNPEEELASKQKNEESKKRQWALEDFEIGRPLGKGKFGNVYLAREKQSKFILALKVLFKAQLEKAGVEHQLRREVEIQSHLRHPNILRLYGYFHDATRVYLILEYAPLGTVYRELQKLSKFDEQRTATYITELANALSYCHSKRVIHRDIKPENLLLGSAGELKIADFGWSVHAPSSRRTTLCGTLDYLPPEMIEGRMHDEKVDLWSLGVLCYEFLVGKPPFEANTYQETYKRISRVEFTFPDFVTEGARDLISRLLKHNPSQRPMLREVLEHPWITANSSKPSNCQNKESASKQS", "experiment": "Inhibition of Aurora kinase A (unknown origin)"}, "Mus musculus [12]": {"system": "Mus musculus", "experiment": "Induction of apoptosis in BALB/c mouse xenografted with human NCI-H23 cells assessed as increase in caspase-3 activation in tumor at 50 mg/kg, po bid for 7 days by immunohistochemical staining based analysis", "type": "functional, organism-based", "conditions": "time 7.0 day"}, "[13]": {"target": "Aurora kinase B (Homo sapiens) (UniProt Q96GD4)", "experiment": "Disruption of AURKB localization in human RPE-MYC cells transfected with BCL2 assessed as localization of AURKB on kinetochore at 40 nM measured after 6 hrs by immunofluorescence staining based analysis", "type": "cell-based"}, "NCI-H23 [14]": {"system": "NCI-H23", "experiment": "Antitumor activity against human NCI-H23 cells xenografted in BALB/c mouse assessed as reduction in cellular density in tumor at 50 mg/kg, po bid for 7 days by Hematoxylin and Eosin staining based analysis", "type": "functional, organism-based", "conditions": "time 7.0 day"}, "[15]": {"experiment": "Dose normalized AUC (0 to 6 hrs) in BALB/c mouse at 50 mg/kg, po compound formulated in PEG300 and administered as single dose by LC-MS/MS analysis", "type": "ADME, organism-based", "conditions": "in vivo"}, "[16]": {"experiment": "Cmax in BALB/c mouse at 50 mg/kg, po compound formulated in PEG300 and administered as single dose by LC-MS/MS analysis", "type": "ADME, organism-based", "design": "dose 50 mg/kg, route po", "conditions": "in vivo"}, "NCI-H23 [17]": {"system": "NCI-H23", "experiment": "Antitumor activity against human NCI-H23 cells xenografted in BALB/c mouse assessed as suppression of tumor growth at 50 mg/kg, po bid for 7 days", "type": "functional, organism-based", "conditions": "time 7.0 day"}, "[18]": {"target": "Aurora kinase B (Homo sapiens) (UniProt Q96GD4)", "experiment": "Disruption of AURKB localization in human RPE-MYC cells transfected with BCL2 assessed as loss of localization of microtubules at the spindle-midzone at 40 nM measured after 6 hrs by immunofluorescence staining based analysis", "type": "cell-based"}, "[19]": {"target": "Aurora kinase B (Homo sapiens) (UniProt Q96GD4)", "experiment": "Disruption of AURKB localization in human RPE-MYC cells transfected with BCL2 assessed as loss of localization of PLK1 at the spindle-midzone at 40 nM measured after 6 hrs by immunofluorescence staining based analysis", "type": "cell-based"}, "[20]": {"target": "Aurora kinase B (Homo sapiens) (UniProt Q96GD4)", "experiment": "Inhibition of Aurora kinase B in human RPE-MYC cells transfected with BCL2 assessed as inhibition of histone H3 phosphorylation at Ser10 residue at highest concentration measured after 6 hrs by immunofluorescence staining based analysis", "type": "cell-based"}, "[21]": {"target": "Aurora kinase B (Homo sapiens) (UniProt Q96GD4)", "experiment": "Disruption of AURKB localization in human RPE-MYC cells transfected with BCL2 assessed as mislocalization of AURKB at the spindle zone in anaphase cells at 40 nM measured after 6 hrs by immunofluorescence staining based analysis", "type": "cell-based"}, "[22]": {"target": "Aurora kinase B (Homo sapiens) (UniProt Q96GD4)", "experiment": "Disruption of AURKB localization in human RPE-MYC cells transfected with BCL2 assessed as loss of localization of MKLP1 at the spindle-midzone by immunofluorescence staining based analysis", "type": "cell-based"}, "[23]": {"target": "Aurora kinase B (Homo sapiens) (UniProt Q96GD4)", "experiment": "Disruption of AURKB localization in human RPE-MYC cells transfected with BCL2 assessed as mislocalization of AURKB at the spindle zone in anaphase cells by immunofluorescence staining based analysis", "type": "cell-based"}, "[24]": {"target": "Aurora kinase B (Homo sapiens) (UniProt Q96GD4)", "experiment": "Disruption of AURKB localization in human RPE-MYC cells transfected with BCL2 assessed as loss of localization of microtubules at the spindle-midzone by immunofluorescence staining based analysis", "type": "cell-based"}, "[25]": {"target": "Aurora kinase B (Homo sapiens) (UniProt Q96GD4)", "experiment": "Disruption of AURKB localization in human RPE-MYC cells transfected with BCL2 assessed as loss of localization of PLK1 at the spindle-midzone by immunofluorescence staining based analysis", "type": "cell-based"}, "[26]": {"target": "T1, Aurora kinase A (Homo sapiens)", "experiment": "Inhibition of Aurora kinase A in human RPE-MYC cells transfected with BCL2 assessed as inhibition of protein autophosphorylation at Thr288 residue by immunofluorescence staining based analysis", "type": "cell-based"}, "[27]": {"target": "Aurora kinase B (Homo sapiens) (UniProt Q96GD4)", "experiment": "Inhibition of Aurora kinase B in human RPE-MYC cells transfected with BCL2 assessed as inhibition of histone H3 phosphorylation at Ser10 residue by immunofluorescence staining based analysis", "type": "cell-based"}}, "note": "Calls of active or inactive are those of the source. The calls are words filed in the database; no cut-off is given here."}
{"smiles": "COc1cc(OC)cc(Oc2ncccc2-c2cccc(N)n2)c1", "values": [{"measurement": "MEC", "setting": "[1]", "result": 0.96, "unit": "µM"}]}
{"smiles": "COC(=O)c1cc(OC)cc(Oc2ncccc2-c2ccnc(N)n2)c1", "values": [{"measurement": "MEC", "setting": "[1]", "result": 0.03, "unit": "µM"}]}
{"smiles": "COc1cc(OC)cc(Oc2ncccc2-c2ccccc2)c1", "values": [{"measurement": "MEC", "setting": "[1]", "result": 2.08, "unit": "µM"}]}
{"smiles": "Nc1nccc(-c2cccnc2Oc2ccccc2)n1", "values": [{"measurement": "MEC", "setting": "[1]", "result": "> 20", "unit": "µM"}]}
{"smiles": "COc1cccc(Oc2ncccc2-c2ccnc(N)n2)c1", "values": [{"measurement": "MEC", "setting": "[1]", "result": 1.5, "unit": "µM"}]}
{"smiles": "COc1cc(OC)cc(Oc2ncccc2-c2ccnc(N)c2)c1", "values": [{"measurement": "MEC", "setting": "[1]", "result": 0.28, "unit": "µM"}]}
{"smiles": "CCN(CCCOc1ccc2c(Nc3cc(CC(=O)Nc4cccc(F)c4)[nH]n3)ncnc2c1)CCOP(=O)(O)O", "values": [{"measurement": "inhibition", "setting": "[2]", "result": 100, "unit": "%"}]}
{"smiles": "COc1cc(OC)cc(Oc2ncccc2-c2ccncc2)c1", "values": [{"measurement": "MEC", "setting": "[1]", "result": 0.14, "unit": "µM"}]}
{"smiles": "CNC(=O)c1cc(Oc2ncccc2-c2ccnc(OC)c2)cc(OC(F)(F)F)c1", "values": [{"measurement": "Activity", "setting": "[3]", "result": "inactive"}, {"measurement": "inhibition", "setting": "[4]", "result": "inactive"}, {"measurement": "inhibition", "setting": "[5]", "result": "Active"}, {"measurement": "inhibition", "setting": "[6]", "result": "Active"}, {"measurement": "Activity", "setting": "[7]", "result": "inactive"}, {"measurement": "Activity", "setting": "[8]", "result": "Active"}, {"measurement": "inhibition", "setting": "[9]", "result": "Active"}, {"measurement": "Activity", "setting": "Mus musculus [10]", "result": "Active"}, {"measurement": "inhibition", "setting": "[11]", "result": "inactive"}, {"measurement": "Activity", "setting": "Mus musculus [12]", "result": "Active"}, {"measurement": "Activity", "setting": "[13]", "result": "inactive"}, {"measurement": "Activity", "setting": "NCI-H23 [14]", "result": "Active"}, {"measurement": "MEC", "setting": "[1]", "result": 0.02, "unit": "µM"}, {"measurement": "AUC/dose", "setting": "[15]", "result": 0.35, "unit": "µM·h/mg/kg"}, {"measurement": "Cmax", "setting": "[16]", "result": 6.9, "unit": "µM"}, {"measurement": "Activity", "setting": "NCI-H23 [17]", "result": "Active"}, {"measurement": "Activity", "setting": "[18]", "result": "Active"}, {"measurement": "Activity", "setting": "[19]", "result": "Active"}, {"measurement": "inhibition", "setting": "[20]", "result": "< 68", "unit": "%"}, {"measurement": "Activity", "setting": "[21]", "result": "Active"}]}
{"smiles": "COc1cc(OC)cc(Oc2ncccc2-c2ccncn2)c1", "values": [{"measurement": "MEC", "setting": "[1]", "result": 0.75, "unit": "µM"}]}
{"smiles": "COC(=O)c1cc(OC)cc(Oc2ncccc2-c2ccncc2)c1", "values": [{"measurement": "MEC", "setting": "[1]", "result": 0.02, "unit": "µM"}]}
{"smiles": "COc1cc(OC)cc(Oc2ncccc2-c2ccnc(C)n2)c1", "values": [{"measurement": "MEC", "setting": "[1]", "result": 1.29, "unit": "µM"}]}
{"smiles": "CNC(=O)c1cc(OC)cc(Oc2ncccc2-c2ccnc(OC)c2)c1", "values": [{"measurement": "Activity", "setting": "[22]", "result": "Active"}, {"measurement": "inhibition", "setting": "[9]", "result": "inactive"}, {"measurement": "MEC", "setting": "[1]", "result": 0.03, "unit": "µM"}, {"measurement": "Activity", "setting": "[23]", "result": "Active"}, {"measurement": "Activity", "setting": "[24]", "result": "Active"}, {"measurement": "Activity", "setting": "[25]", "result": "Active"}]}
{"smiles": "COc1cc(Oc2ncccc2-c2ccncc2)cc(-c2nc(C)no2)c1", "values": [{"measurement": "MEC", "setting": "[1]", "result": 0.42, "unit": "µM"}]}
{"smiles": "COc1cc(OC)cc(Oc2ncccc2-c2ccnc(OC)c2)c1", "values": [{"measurement": "inhibition", "setting": "[26]", "result": "inactive"}, {"measurement": "MEC", "setting": "[1]", "result": 0.07, "unit": "µM"}, {"measurement": "inhibition", "setting": "[27]", "result": "inactive"}]}
{"smiles": "CNC(=O)c1cc(Oc2ncccc2-c2ccncc2)cc(OC(F)(F)F)c1", "values": [{"measurement": "MEC", "setting": "[1]", "result": 0.16, "unit": "µM"}]}
